Test results as given in patent US10005774B2, “Syk inhibitors” (Gilead Sciences, Inc., priority 2013, dated 2018).
Several values for one entry are separate records, joined by “and”; a condition that tells them apart may be missing. Identical values can stand only once. Like-named read-outs stand apart in the source and are kept apart here.

Target: Syk (Homo sapiens, UniProt P43405)
Assay: High Throughput Syk Biochemical Assay (KinEASE TR-FRET)
Conditions: 20 μM ATP, 1 μM biotinylated peptide, 0.015 nM Syk, 30 min at room temperature
Protocol: High Throughput Syk Biochemical Assay
Syk activity was measured using KinEASE (Cisbio), a time-resolved fluorescence resonance energy transfer (TR-FRET) immunoassay. In this assay. Syk-catalyzes the phosporylation of a XL665-labeled peptide substrate. Europium conjugated phospho-tyrosine specific antibody binds the resulting phosphorylated peptide. Formation of phosphorylated peptide is quantified by TR-FRET with Europium as the donor and XL665 the acceptor in a 2-step endpoint assay. In brief, test compounds serially diluted in DMSO were delivered into Corning white, low volume, non-binding 384 well plates using the Echo 550 acoustic liquid dispenser (Labcyte®). Syk enzyme and substrates were dispensed into assay plates using a Multi-Flo (Bio-Tek Instruments). […] Percent inhibition was calculated as follows: % Inhibition=100×(RatioSample−Ratio0% Inhibition)/(Ratio100% Inhibition−Ratio0% Inhibition)

[1] = table 'ALL NEW COMPOUNDS IN 2014', read-out: Syk IC50

IC50 (TABLE D, read-out: IC50)	IC50 [1] [nM]	SMILES
148 nM		C[C@@H](Oc1nc(-c2ccc3c(c2)OC(F)(F)O3)cc2ncn(C)c12)[C@H]1CNC(=O)C1 [(R)-4-((R)-1-(6-(2,2-difluorobenzo[d][1,3]dioxol-5-yl)-3-methyl-3H-imidazo[4,5-c]pyridin-4-yloxy)ethyl)pyrrolidin-2-one]
10.2 nM		C[C@@H](Oc1cc(-c2cnn(CC(F)F)c2)cn2nccc12)[C@H]1CNC(=O)C1 [(R)-4-((R)-1-((6-(1-(2,2-difluoroethyl)-1H-pyrazol-4-yl)pyrazolo[1,5-a]pyridin-4-yl)oxy)ethyl)pyrrolidin-2-one]
15.9 nM		CC(C)Cn1cc(-c2cc3ncn(C)c3c(O[C@H](C)[C@H]3CNC(=O)C3)n2)cn1 [(R)-4-((R)-1-(6-(1-isobutyl-1H-pyrazol-4-yl)-3-methyl-3H-imidazo[4,5-c]pyridin-4-yloxy)ethyl)pyrrolidin-2-one]
	5.69	C[C@@H](Oc1nc(-c2ccc(N3CC(N4CCOCC4)C3)cc2)cc2ncn(C3CC3)c12)[C@H]1CNC(=O)C1 [(R)-4-((R)-1-((3-cyclopropyl-6-(4-(3-morpholinoazetidin-1-yl)phenyl)-3H-imidazo[4,5-c]pyridin-4-yl)oxy)ethyl)pyrrolidin-2-one]
1.55 nM and 1.25 nM		C[C@@H](Oc1nc(-c2ccc(N3CCOCC3)cc2)cc2ncn(C(F)F)c12)[C@H]1CNC(=O)C1 [(R)-4-((R)-1-(3-(difluoromethyl)-6-(4-morpholinophenyl)-3H-imidazo[4,5-c]pyridin-4-yloxy)ethyl)pyrrolidin-2-one]
0.377 nM		Cc1cnn2cc(-c3ccc(N4CCOCC4)cc3)nc(O[C@H](C)[C@H]3CNC(=O)C3)c12 [(R)-4-((R)-1-((3-methyl-6-(4-morpholinophenyl)pyrazolo[1,5-a]pyrazin-4-yl)oxy)ethyl)pyrrolidin-2-one]
5.35 nM		C[C@@H](Oc1cc(-c2cnn(C(C)(C)C)c2)cc2ncn(C)c12)[C@H]1CNC(=O)C1 [(R)-4-((R)-1-((5-(1-(tert-butyl)-1H-pyrazol-4-yl)-1-methyl-1H-benzo[d]imidazol-7-yl)oxy)ethyl)pyrrolidin-2-one]
25.4 nM		COc1ccc(-c2cc3nc(C)n(C)c3c(O[C@H](C)[C@H]3CNC(=O)C3)n2)cc1OC [(4R)-4-((1R)-1-(6-(3,4-dimethoxyphenyl)-2,3-dimethyl-3a,7a-dihydro-3H-imidazo[4,5-c]pyridin-4-yloxy)ethyl)pyrrolidin-2-one]
0.693 nM		C[C@@H](Oc1cc(-c2cnn(C3CCC3)c2)cc2ncsc12)[C@H]1CNC(=O)C1 (stereo in doubt) [(R)-4-((R)-1-((5-(1-cyclobutyl-1H-pyrazol-4-yl)benzo[d]thiazol-7-yl)oxy)ethyl)pyrrolidin-2-one]
12.7 nM		C[C@@H](Oc1nc(-c2cnn3ccccc23)cc2ncn(C)c12)[C@H]1CNC(=O)C1 [(R)-4-((R)-1-(3-methyl-6-(pyrazolo[1,5-a]pyridin-3-yl)-3H-imidazo[4,5-c]pyridin-4-yloxy)ethyl)pyrrolidin-2-one]
17.2 nM		COc1ccc(-c2cc3ncn(C)c3c(O[C@H](C)[C@H]3CNC(=O)C3)n2)cc1F [(R)-4-((R)-1-(6-(3-fluoro-4-methoxyphenyl)-3-methyl-3H-imidazo[4,5-c]pyridin-4-yloxy)ethyl)pyrrolidin-2-one]
50.8 nM		COc1ccc(-c2cc3nc(C)n(C(F)F)c3c(O[C@H](C)[C@H]3CNC(=O)C3)n2)cc1OC [(R)-4-((R)-1-(3-(difluoromethyl)-6-(3,4-dimethoxyphenyl)-2-methyl-3H-imidazo[4,5-c]pyridin-4-yloxy)ethyl)pyrrolidin-2-one]
	66.7	C[C@@H](Oc1cc(-c2cnccn2)cc2ncn(C3CC3)c12)[C@H]1CNC(=O)C1 [(R)-4-((R)-1-((1-cyclopropyl-5-(pyrazin-2-yl)-1H-benzo[d]imidazol-7-yl)oxy)ethyl)pyrrolidin-2-one]
	3.2	C[C@@H](Oc1cc(-c2ccc(N3CCN(C4COC4)CC3)c(C#N)c2)cc2ncn(C3CC3)c12)[C@H]1CNC(=O)C1 [5-(1-cyclopropyl-7-((R)-1-((R)-5-oxopyrrolidin-3-yl)ethoxy)-1H-benzo[d]imidazol-5-yl)-2-(4-(oxetan-3-yl)piperazin-1-yl)benzonitrile]
184 nM		C[C@@H](Oc1nc(-c2cccc3scnc23)cc2ncn(C)c12)[C@H]1CNC(=O)C1 [(R)-4-((R)-1-(6-(benzo[d]thiazol-4-yl)-3-methyl-3H-imidazo[4,5-c]pyridin-4-yloxy)ethyl)pyrrolidin-2-one]
24.3 nM		C[C@@H](Oc1nc(-c2cnn(C)c2)cc2ncn(C)c12)[C@H]1CNC(=O)C1 [(R)-4-((R)-1-(3-methyl-6-(1-methyl-1H-pyrazol-4-yl)-3H-imidazo[4,5-c]pyridin-4-yloxy)ethyl)pyrrolidin-2-one]

IC50 (TABLE D, read-out: IC50)	IC50 [1] [nM]	SMILES
74.2 nM		COc1cc(-c2cc3ncn(C)c3c(O[C@H](C)[C@H]3CNC(=O)C3)n2)ccc1C#N [2-methoxy-4-(3-methyl-4-((R)-1-((R)-5-oxopyrrolidin-3-yl)ethoxy)-3H-imidazo[4,5-c]pyridin-6-yl)benzonitrile]
	7.54	C[C@@H](Oc1nc(-c2cnc(C(C)(C)O)s2)cc2ncn(C3CC3)c12)[C@H]1CNC(=O)C1 [(R)-4-((R)-1-((3-cyclopropyl-6-(2-(2-hydroxypropan-2-yl)thiazol-5-yl)-3H-imidazo[4,5-c]pyridin-4-yl)oxy)ethyl)pyrrolidin-2-one]
	1.41	C[C@@H](Oc1cc(-c2cnc(C(C)(C)O)s2)cc2ncn(C3CC3)c12)[C@H]1CNC(=O)C1 [(R)-4-((R)-1-((1-cyclopropyl-5-(2-(2-hydroxypropan-2-yl)thiazol-5-yl)-1H-benzo[d]imidazol-7-yl)oxy)ethyl)pyrrolidin-2-one]
	8.85	C[C@@H](Oc1nc(-c2cnc3c(c2)N(C)C(=O)C3(C)C)cc2ncn(C3CC3)c12)[C@H]1CNC(=O)C1 [6-(3-cyclopropyl-4-((R)-1-((R)-5-oxopyrrolidin-3-yl)ethoxy)-3H-imidazo[4,5-c]pyridin-6-yl)-1,3,3-trimethyl-1H-pyrrolo[3,2-b]pyridin-2(3H)-one]
13.2 nM		C[C@@H](Oc1nc(-c2cnn(CCF)c2)cc2ncn(C)c12)[C@H]1CNC(=O)C1 [(R)-4-((R)-1-(6-(1-(2-fluoroethyl)-1H-pyrazol-4-yl)-3-methyl-3H-imidazo[4,5-c]pyridin-4-yloxy)ethyl)pyrrolidin-2-one]
1.6 nM		COc1ccc(-c2cc3ncn(C4CC4)c3c(O[C@H](C)[C@H]3CNC(=O)C3)n2)cc1OC [(R)-4-((R)-1-(3-cyclopropyl-6-(3,4-dimethoxyphenyl)-3H-imidazo[4,5-c]pyridin-4-yloxy)ethyl)pyrrolidin-2-one]
22.8 nM		Cc1cc(-c2cc3ncn(C)c3c(O[C@H](C)[C@H]3CNC(=O)C3)n2)n[nH]1 [(R)-4-((R)-1-(3-methyl-6-(5-methyl-1H-pyrazol-3-yl)-3H-imidazo[4,5-c]pyridin-4-yloxy)ethyl)pyrrolidin-2-one]
124 nM		C[C@@H](Oc1nc(C2=CCCCC2)cc2ncn(C)c12)[C@H]1CNC(=O)C1 [(R)-4-((R)-1-(6-cyclohexenyl-3-methyl-3H-imidazo[4,5-c]pyridin-4-yloxy)ethyl)pyrrolidin-2-one]
19.3 nM		C[C@@H](Oc1nc(-c2csc(C(C)(C)C)n2)cc2ncn(C)c12)[C@H]1CNC(=O)C1 [(R)-4-((R)-1-(6-(2-tert-butylthiazol-4-yl)-3-methyl-3H-imidazo[4,5-c]pyridin-4-yloxy)ethyl)pyrrolidin-2-one]
1.73 nM		C[C@@H](Oc1cc(-c2ccc(N3CCN(C4COC4)CC3)cn2)cc2ncsc12)[C@H]1CNC(=O)C1 (stereo in doubt) [(R)-4-((R)-1-((5-(5-(4-(oxetan-3-yl)piperazin-1-yl)pyridin-2-yl)benzo[d]thiazol-7-yl)oxy)ethyl)pyrrolidin-2-one]
10.2 nM		C[C@@H](Oc1nc(-c2cnn(C3CCOCC3)c2)cc2ncn(C)c12)[C@H]1CNC(=O)C1 [(R)-4-((R)-1-(3-methyl-6-(1-(tetrahydro-2H-pyran-4-yl)-1H-pyrazol-4-yl)-3H-imidazo[4,5-c]pyridin-4-yloxy)ethyl)pyrrolidin-2-one]
	7.43	Cc1ccc(-c2cc3ncn(C4CC4)c3c(O[C@H](C)[C@H]3CNC(=O)C3)n2)s1 [(R)-4-((R)-1-((3-cyclopropyl-6-(5-methylthiophen-2-yl)-3H-imidazo[4,5-c]pyridin-4-yl)oxy)ethyl)pyrrolidin-2-one]
	7.55	C[C@@H](Oc1nc(-c2ccc3c(c2)N(C)C(=O)C32CN(C)C2)cc2ncn(C3CC3)c12)[C@H]1CNC(=O)C1 [6′-(3-cyclopropyl-4-((R)-1-((R)-5-oxopyrrolidin-3-yl)ethoxy)-3H-imidazo[4,5-c]pyridin-6-yl)-1,1′-dimethylspiro[azetidine-3,3′-indolin]-2′-one]
7.85 nM		C[C@@H](Oc1cc(-c2ccc(N3CCOCC3)cc2)cn2nccc12)[C@H]1CNC(=O)C1 [(R)-4-((R)-1-((6-(4-morpholinophenyl)pyrazolo[1,5-a]pyridin-4-yl)oxy)ethyl)pyrrolidin-2-one]
17.7 nM		C[C@@H](Oc1nc(-c2cnn(CC(F)F)c2)cc2ncn(C)c12)[C@H]1CNC(=O)C1 [(R)-4-((R)-1-(6-(1-(2,2-difluoroethyl)-1H-pyrazol-4-yl)-3-methyl-3H-imidazo[4,5-c]pyridin-4-yloxy)ethyl)pyrrolidin-2-one]
2.49 nM		COc1ccc(-c2cc3ncn(CF)c3c(O[C@H](C)[C@H]3CNC(=O)C3)n2)cc1OC [(R)-4-((R)-1-(6-(3,4-dimethoxyphenyl)-3-(fluoromethyl)-3H-imidazo[4,5-c]pyridin-4-yloxy)ethyl)pyrrolidin-2-one]
